# What was measured:
# [1] = tested on: H3K18Ac in HB-CLS-2 cells; assay: H3K18AC in-cell western (ICW) assay; assay type: cell-based; conditions: H3K18Ac in-cell western; read-out: CREBBP ICW IC50
# In short: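 In-cell western: after methanol fixation, blocking, overnight 4° C anti-H3K18Ac staining, then 800CW secondary plus DRAQ5 for DNA content, integrated intensities were scanned at 800 and 700 nm. Before this, compound exposure lasted 2 hr at 37° C in HB-CLS-2 cells plated 16–24 hours earlier. Values expressed as IC50 (μM).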
# EP300 (P300(1048-1664)) = target: T1, EP300 (P300(1048-1664)) (Homo sapiens, UniProt Q09472); assay: Biochemical assay for EP300, SAMDI; conditions: EP300, SAMDI; read-out: EP300 Biochemistry IC50
# T1 construct: P300(1048-1664)
# T1 sequence (Q09472 1048-1664): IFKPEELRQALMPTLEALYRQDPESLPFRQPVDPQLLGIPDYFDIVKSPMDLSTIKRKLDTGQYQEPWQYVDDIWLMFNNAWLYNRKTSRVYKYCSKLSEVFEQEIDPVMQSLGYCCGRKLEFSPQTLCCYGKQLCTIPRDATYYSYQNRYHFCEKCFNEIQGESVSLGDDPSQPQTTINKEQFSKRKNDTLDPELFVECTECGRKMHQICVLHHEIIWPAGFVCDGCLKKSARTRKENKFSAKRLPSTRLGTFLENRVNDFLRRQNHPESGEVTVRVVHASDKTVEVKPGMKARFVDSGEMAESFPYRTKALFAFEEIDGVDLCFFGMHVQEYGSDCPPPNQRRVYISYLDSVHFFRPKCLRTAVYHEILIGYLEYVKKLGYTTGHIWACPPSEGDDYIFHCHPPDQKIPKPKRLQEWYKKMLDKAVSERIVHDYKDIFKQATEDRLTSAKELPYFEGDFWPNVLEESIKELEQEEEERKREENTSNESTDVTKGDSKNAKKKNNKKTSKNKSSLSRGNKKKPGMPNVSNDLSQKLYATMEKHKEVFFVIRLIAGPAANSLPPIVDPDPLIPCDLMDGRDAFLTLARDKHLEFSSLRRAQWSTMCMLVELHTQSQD
# Excerpt: The following example describes materials and methods relating to a biochemical assay for EP300. IC50 values (micromolar (μM)) are summarized in Table 1, Table 2, and Table 3 under the column labeled: “EP300 Biochemistry IC50 (micromolar).”
# 647V cells = assay: High throughput proliferation (HTP) assay; assay type: cell-based; conditions: Homo sapiens, 647-V, high throughput proliferation; read-out: CREBBP HTP IC50
# In short: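 Proliferation IC50 (micromolar) derived from a 7-day CellTiter-Glo viable-cell readout in 647V cells exposed, in triplicate, to rising compound concentrations; cells grown in DMEM plus 15% heat-inactivated FBS at 37° C under 5% CO2.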
# CREBBP (1084-1701) = target: T2, CREBBP (1084-1701) (Homo sapiens, UniProt Q92793); assay: Biochemical assay for CREBBP (1084-1701), SAMDI; conditions: SAMDI, read-out: CREBBP Biochemistry IC50
# T2 construct: measured in the following biochemical assay using CREBBP (1084-1701); purchased
# T2 sequence (Q92793 1084-1701): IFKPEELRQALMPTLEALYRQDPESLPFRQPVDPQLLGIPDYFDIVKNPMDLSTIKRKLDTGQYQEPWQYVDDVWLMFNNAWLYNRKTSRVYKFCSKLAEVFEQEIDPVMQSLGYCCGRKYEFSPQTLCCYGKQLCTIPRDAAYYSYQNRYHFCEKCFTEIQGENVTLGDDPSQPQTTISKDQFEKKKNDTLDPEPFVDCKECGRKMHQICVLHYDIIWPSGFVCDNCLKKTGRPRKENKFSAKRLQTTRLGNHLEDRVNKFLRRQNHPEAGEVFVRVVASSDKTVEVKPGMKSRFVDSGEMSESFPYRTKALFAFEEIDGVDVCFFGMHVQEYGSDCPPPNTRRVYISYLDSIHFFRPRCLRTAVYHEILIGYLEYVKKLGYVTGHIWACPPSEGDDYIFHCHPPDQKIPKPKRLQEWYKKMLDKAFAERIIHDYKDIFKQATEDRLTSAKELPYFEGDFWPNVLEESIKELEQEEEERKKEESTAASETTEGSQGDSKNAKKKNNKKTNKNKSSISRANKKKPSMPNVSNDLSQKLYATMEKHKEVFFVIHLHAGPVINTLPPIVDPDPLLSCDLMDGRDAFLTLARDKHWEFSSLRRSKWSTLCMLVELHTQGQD
# In short: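 Acetyltransferase activity measured by SAMDI mass spectrometry after capture on biochip. Enzyme sat with compound 30 min at RT before acetyl-CoA and biotinylated H3 11-25 (K14R, K23R) peptide were added for 30 min at RT. Formic acid quench, bicarbonate neutralisation; IC50 values reported.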
Compound,IC50 [1],IC50 (EP300 (P300(1048-1664))),IC50 (647V cells),IC50 (CREBBP (1084-1701))
CCc1ncc(CN(C)C(=O)c2cc(-c3ccc(NCCNC)c(C)n3)nc3ccc(COC)cc23)n1C [Compound 513],0.47 µM,0.035 µM,0.203 µM,0.0684 µM
CCc1ncc(CN(C)C(=O)c2nc(-c3cc(C)c4[nH]c(=O)[nH]c4c3)nc3ccc(Cl)cc23)n1C [Compound 514],0.471 µM,0.0027 µM,0.363 µM,0.00896 µM
CCn1ncc(CN(C)C(=O)c2nc(-c3cc4c(N)n(CCNC)nc4cc3C)nc3ccc(Cl)cc23)c1C [Compound 515],0.166 µM,0.0494 µM,0.0785 µM,0.0705 µM
CCn1ncc(CN(C)C(=O)c2nc(-c3cc(C)nc(NCCNC)c3)nc3ccc(COC)cc23)c1C [Compound 516],0.194 µM,0.0465 µM,0.125 µM,0.0584 µM
CCc1ncc(CN(C)C(=O)c2cc(-c3ccc(NC4CCOCC4)c(C)n3)nc3ccc(Cl)cc23)n1C [Compound 517],0.159 µM,0.0121 µM,0.107 µM,0.0361 µM
CCn1ncc(CN(C)C(=O)c2cc(-c3cc4c(N)n[nH]c4c(C)n3)nc3ccc(Cl)cc23)c1C [Compound 519],0.253 µM,0.107 µM,0.326 µM,0.0314 µM
CCn1ncc(CN(C)C(=O)c2cc(-c3cc(C(=O)NC)n(C)n3)nc3ccc(COC)cc23)c1C [Compound 520],0.334 µM,0.0238 µM,0.65 µM,0.0807 µM
CCn1ncc(CN(C)C(=O)c2cc(-c3ccc(NCCO)c(C)n3)nc3ccc(Cl)cc23)c1C [Compound 521],0.0804 µM,0.0071 µM,0.11 µM,0.01 µM
CCn1ncc(CN(C)C(=O)c2nc(-c3nc4c[nH]nc4cc3C)nc3ccc(Cl)cc23)c1C [Compound 522],16.6 µM,16.6 µM,8.06 µM,26 µM
CCc1ncc(CN(C)C(=O)c2nc(-c3cc(Cl)c4[nH]cnc4c3)nc3ccc(COC)cc23)n1C [Compound 523],0.0741 µM,0.0027 µM,0.0347 µM,0.00622 µM
CCn1ncc(CN(C)C(=O)c2nc(-c3cc(C)c4c(N)n[nH]c4c3)nc3ccc(COC)cc23)c1C [Compound 524],0.0814 µM,0.004 µM,0.163 µM,0.016 µM
CCn1ncc(CN(C)C(=O)c2cc(-c3cnc(NCCNC)c(C)n3)nc3ccc(Cl)cc23)c1C [Compound 525],0.261 µM,0.142 µM,0.313 µM,0.054 µM
CCc1ncc(CN(C)C(=O)c2nc(-c3cc(C)c4c(N)[nH]nc4c3)nc3ccc(Cl)cc23)n1C [Compound 526],0.0465 µM,0.002 µM,0.072 µM,0.00642 µM
CCc1ncc(CN(C)C(=O)c2nc(-c3cc(C)nc(NCCNC)c3)nc3ccc(COC)cc23)n1C [Compound 527],0.798 µM,0.0212 µM,0.295 µM,0.0673 µM
CCn1ncc(CN(C)C(=O)c2nc(-c3cc4[nH]ncc4nc3C)nc3ccc(Cl)cc23)c1C [Compound 528],0.603 µM,1.05 µM,1.11 µM,1.06 µM
CCn1ncc(CN(C)C(=O)c2cc(-c3ccc(NCCNS(C)(=O)=O)c(C)n3)nc3ccc(Cl)cc23)c1C [Compound 529],0.137 µM,0.0104 µM,0.238 µM,0.0207 µM
CCn1ncc(CN(C)C(=O)c2cc(-c3cc4[nH]cnc4c(C)n3)nc3ccc(COC)cc23)c1C [Compound 530],0.154 µM,0.0125 µM,0.248 µM,0.0503 µM

Compound,IC50 [1],IC50 (EP300 (P300(1048-1664))),IC50 (647V cells),IC50 (CREBBP (1084-1701))
CCn1ncc(CN(C)C(=O)c2cc(-c3cc(N[C@@H]4CCNC4)cc(C)n3)nc3ccc(Cl)cc23)c1C [Compound 531],0.35 µM,0.0063 µM,0.0889 µM,0.0299 µM
CCn1ncc(CN(C)C(=O)c2nc(-c3ccc4n[nH]c(N)c4c3)nc3ccc(Cl)cc23)c1C [Compound 532],0.159 µM,0.0154 µM,0.288 µM,0.0173 µM
CCn1ncc(C(C)N(C)C(=O)c2cc(-c3ccc(NCCNC)c(C)n3)nc3ccc(Cl)cc23)c1C (stereo not shown) [Compound 533],0.159 µM,0.0324 µM,0.0796 µM,0.183 µM
CCn1ncc(CN(C)C(=O)c2cc(-c3ccc(NCC(F)(F)CNC)c(C)n3)nc3ccc(Cl)cc23)c1C [Compound 534],0.171 µM,0.0091 µM,0.228 µM,0.0324 µM
CCn1ncc(CN(C)C(=O)c2nc(-c3cc4c(N)n[nH]c4cc3C)nc3ccc(Br)cc23)c1C [Compound 535],0.0583 µM,0.0041 µM,0.0581 µM,0.012 µM
CCn1ncc(CN(C)C(=O)c2cc(-c3ccc(NC4CNCC4(F)F)c(C)n3)nc3ccc(Cl)cc23)c1C (stereo not shown) [Compound 538],1.06 µM,0.0886 µM,1.73 µM,0.0887 µM
CCn1ncc(CN(C)C(=O)c2nc(-c3cc(C)cc(NC4CNC(=O)C4)c3)nc3ccc(Cl)cc23)c1C (stereo not shown) [Compound 539],0.714 µM,0.0262 µM,1.34 µM,0.0304 µM
CNCCNc1ccc(-c2cc(C(=O)N(C)Cc3cnc(C4CC4)n3C)c3cc(Cl)ccc3n2)nc1C [Compound 540],0.0828 µM,0.0061 µM,0.0233 µM,0.0205 µM
CCc1ncc(CN(C)C(=O)c2cc(-c3cc(-c4ncc[nH]4)n(C)n3)nc3ccc(Cl)cc23)n1C [Compound 541],0.104 µM,0.0027 µM,0.0854 µM,0.0112 µM
CCn1ncc(CN(C)C(=O)c2cc(-c3cc(-c4ncc[nH]4)n(C)n3)nc3ccc(Cl)cc23)c1C [Compound 542],0.0535 µM,0.0024 µM,0.0566 µM,0.00692 µM
CNCCNc1ccc(-c2cc(C(=O)N(C)Cc3cncn3C)c3cc(Cl)ccc3n2)nc1C [Compound 543],6.82 µM,8.96 µM,2.26 µM,8.54 µM
CNCCNc1ccc(-c2cc(C(=O)N(C)Cc3cnc(C(C)C)n3C)c3cc(Cl)ccc3n2)nc1C [Compound 544],0.124 µM,0.006 µM,0.0425 µM,0.0146 µM
CCc1ncc(CN(C)C(=O)c2nc(-c3cc(N)c4c[nH]nc4c3)nc3ccc(Cl)cc23)n1C [Compound 546],0.113 µM,0.0337 µM,0.0964 µM,0.0137 µM
CCn1ncc(CN(C)C(=O)c2cc(-c3cc(NC4CNC4)cc(C)n3)nc3ccc(Cl)cc23)c1C [Compound 547],0.55 µM,0.0125 µM,0.105 µM,0.0238 µM
CCc1onc(CN(C)C(=O)c2cc(-c3ccc(NCCNC)c(C)n3)nc3ccc(Cl)cc23)c1C [Compound 548],2.15 µM,2.16 µM,1.86 µM,2.02 µM
CCc1ncc(CN(C)C(=O)c2cc(-c3ccc(NC4CN(C(C)=O)C4)c(C)n3)nc3ccc(Cl)cc23)n1C [Compound 549],0.24 µM,0.0124 µM,0.15 µM,0.0349 µM
CCn1ncc(CN(C)C(=O)c2cc(-c3cc(-c4ncc[nH]4)n(C)n3)nc3ccc(COC)cc23)c1C [Compound 550],0.128 µM,0.0141 µM,0.247 µM,0.0322 µM
